Key:
Assay type in all cases: in vivo
[1] = system: Ipomoea hederacea (IPOHE); assay: Glasshouse herbicidal test, pre- and post-emergence (Table B1); details: 130 g/h, evaluated after 13 days; for percentage damage caused to the plant, POST Application IPOHE: post-emergence; for percentage damage caused to the plant, PRE Application IPOHE: pre-emergence
Protocol: (§1) Seeds of a variety of test species are sown in standard soil in pots (Lolium perenne (LOLPE), Amaranthus retoflexus (AMARE), Amaranthus palmeri (AMAPA), Ablution theophrasti (ABUTH), Setaria faberi (SETFA), Echinochloa crus-galli (ECHCG), Ipomoea hederacea (IPOHE)). After cultivation for one day (pre-emergence) or after 8 days cultivation (post-emergence) under controlled conditions in a glasshouse (at 24/16° C., day/night; 14 hours light; 65% humidity), the plants are sprayed with an aqueous spray solution derived from the formulation of the technical active ingredient in acetone/water (50:50) solution containing 0.5% Tween 20 (polyoxyethelyene sorbitan monolaurate, CAS RN 9005-64-5). Compounds are applied at 130 g/h unless otherwise indicated. The test plants are then grown in a glasshouse under controlled conditions in a glasshouse (at 24/16° C., day/night; 14 hours light; 65% humidity) and watered twice daily. After 13 days for pre and post-emergence, the test is evaluated for the percentage damage caused to the plant. The biological activities are shown in the following table on a five-point scale (5=80-100%; 4=60-79%; 3=40-59%; 2=20-39%; 1=0-19%).

[2] = system: Amaranthus retoflexus (AMARE); assay: as above; details: 130 g/h, evaluated after 13 days; for percentage damage caused to the plant, POST Application AMARE: post-emergence; for percentage damage caused to the plant, PRE Application AMARE: pre-emergence
Protocol: as §1

Setaria faberi (SETFA) = assay: as above; details: 130 g/h, evaluated after 13 days; for percentage damage caused to the plant, POST Application SETFA: post-emergence; for percentage damage caused to the plant, PRE Application SETFA: pre-emergence
Protocol: as §1

[3] = system: Amaranthus palmeri (AMAPA); assay: as above; details: 130 g/h, evaluated after 13 days; for percentage damage caused to the plant, PRE Application AMAPA: pre-emergence
Protocol: as §1

[4] = system: Echinochloa crus-galli (ECHCG); assay: as above; details: 130 g/h, evaluated after 13 days; for percentage damage caused to the plant, POST Application ECHCG: post-emergence; for percentage damage caused to the plant, PRE Application ECHCG: pre-emergence
Protocol: as §1

[5] = system: AMARE (Amaranthus retoflexus); assay: Comparative test, pre-emergence (Table B2); details: after 14 days
[6] = system: IPOHE (Ipomoea hederacea); assay: Comparative test, pre-emergence (Table B2); details: after 14 days
[7] = system: ECHCG (Echinochloa crus-galli); assay: Comparative test, pre-emergence (Table B2); details: after 14 days
SETFA (Setaria faberi) = assay: Comparative test, pre-emergence (Table B2); details: after 14 days

Structure (SMILES) | percentage damage caused to the plant, POST Application IPOHE [1] | percentage damage caused to the plant, PRE Application IPOHE [1] | percentage damage caused to the plant, POST Application AMARE [2] | percentage damage caused to the plant, PRE Application AMARE [2] | percentage damage caused to the plant, POST Application SETFA (Setaria faberi (SETFA)) | percentage damage caused to the plant, PRE Application SETFA (Setaria faberi (SETFA)) | percentage damage caused to the plant, PRE Application AMAPA [3] | percentage damage caused to the plant, POST Application ECHCG [4] | percentage damage caused to the plant, PRE Application ECHCG [4] | damage to plant (100 = total damage; 0 = no damage), PRE Application AMARE ([5]; rate 31 g/ha) | damage to plant (100 = total damage; 0 = no damage), PRE Application AMARE ([5]; rate 130 g/ha) | damage to plant (100 = total damage; 0 = no damage), PRE Application IPOHE ([6]; rate 31 g/ha) | damage to plant (100 = total damage; 0 = no damage), PRE Application IPOHE ([6]; rate 130 g/ha) | damage to plant (100 = total damage; 0 = no damage), PRE Application ECHCG ([7]; rate 31 g/ha) | damage to plant (100 = total damage; 0 = no damage), PRE Application ECHCG ([7]; rate 130 g/ha) | damage to plant (100 = total damage; 0 = no damage), PRE Application SETFA (SETFA (Setaria faberi); rate 31 g/ha) | damage to plant (100 = total damage; 0 = no damage), PRE Application SETFA (SETFA (Setaria faberi); rate 130 g/ha) | percentage damage caused to the plant, POST Application AMAPA ([3]; post-emergence)
Cc1c(C(=O)Nc2nnnn2C)ccc(OC(F)(F)F)c1NS(C)(=O)=O [Compound 1.075] | 5 (5=80-100%) | 3 (3=40-59%) | 5 (5=80-100%) | 5 (5=80-100%) | 5 (5=80-100%) | 4 (4=60-79%) | 5 (5=80-100%) | 5 (5=80-100%) | 5 (5=80-100%) | 80 | 100 | 40 | 50 | 60 | 90 | 30 | 60 | –
CCS(=O)(=O)Nc1c(OC(F)(F)F)ccc(C(=O)Nc2nnnn2C)c1C [Compound 1.081] | 5 (5=80-100%) | 3 (3=40-59%) | 5 (5=80-100%) | 5 (5=80-100%) | 5 (5=80-100%) | 5 (5=80-100%) | 5 (5=80-100%) | 5 (5=80-100%) | 5 (5=80-100%) | 90 | 100 | 40 | 50 | 60 | 90 | 20 | 80 | 5 (5=80-100%)

— US12715849B2, “Herbicidal tetrazole compounds” (SYNGENTA CROP PROTECTION AG, priority 2020, dated 2026)
